# In patent US9409866B2, “Pyridine-2-amides useful as CB2 agonists” (Hoffmann-La Roche Inc., priority 2012, dated 2016):
# Where two headings read alike, the source gives them in different places.
# Legend:
# human CB2 receptors = human CB2 receptors (Homo sapiens (Human), UniProt P34972); experiment: functional cAMP assay, CHO cells expressing human CB2; assay type: cell-based
# How it was run: (§1)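 CHO-hCB1/hCB2 cells, KRB + 1 mM IBMX preincubation 30 min 30 °C; cpd 30 min 30 °C; lysis + TR-FRET cAMP detection, 2 h RT; cAMP from std curve; EC50.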
# human CB1 receptors = human CB1 receptors (Homo sapiens (Human), UniProt P21554); experiment: functional cAMP assay, CHO cells expressing human CB1; assay type: cell-based
# How it was run: as §1
# [1] = functional cAMP assay, CHO cells expressing human CB1; read-out: Human CB1 EC50
# [2] = Human CB1 EC50 (uM), functional cAMP assay, CHO cells expressing human CB1
# [3] = read-out: Human CB1 EC50; functional cAMP assay, CHO cells expressing human CB1
# Sequence of human CB2 receptors (P34972 whole entry): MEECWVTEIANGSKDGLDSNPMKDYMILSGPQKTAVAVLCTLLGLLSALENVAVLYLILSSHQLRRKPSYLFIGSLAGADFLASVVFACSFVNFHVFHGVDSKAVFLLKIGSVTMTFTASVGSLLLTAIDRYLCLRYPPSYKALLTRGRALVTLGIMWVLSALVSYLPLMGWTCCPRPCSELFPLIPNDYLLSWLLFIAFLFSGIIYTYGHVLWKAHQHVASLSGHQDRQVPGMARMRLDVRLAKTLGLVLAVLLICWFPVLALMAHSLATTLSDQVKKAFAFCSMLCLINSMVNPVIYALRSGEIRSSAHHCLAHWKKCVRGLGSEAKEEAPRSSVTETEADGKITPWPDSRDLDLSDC
# Sequence of human CB1 receptors (P21554 whole entry): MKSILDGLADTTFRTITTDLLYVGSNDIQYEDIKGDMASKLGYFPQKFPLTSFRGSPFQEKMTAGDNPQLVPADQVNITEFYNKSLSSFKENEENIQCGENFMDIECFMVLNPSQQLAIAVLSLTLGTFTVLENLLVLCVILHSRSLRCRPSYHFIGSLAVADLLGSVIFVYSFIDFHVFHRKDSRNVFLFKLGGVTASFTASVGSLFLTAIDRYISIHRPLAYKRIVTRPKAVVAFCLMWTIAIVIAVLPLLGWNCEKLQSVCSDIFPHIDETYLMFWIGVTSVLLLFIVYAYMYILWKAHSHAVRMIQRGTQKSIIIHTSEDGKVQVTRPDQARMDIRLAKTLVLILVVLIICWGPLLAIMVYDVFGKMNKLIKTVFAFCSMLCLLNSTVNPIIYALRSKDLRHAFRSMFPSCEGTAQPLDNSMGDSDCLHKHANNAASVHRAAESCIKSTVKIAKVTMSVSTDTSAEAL
SMILES,EC50 (human CB2 receptors; read-out: Human CB2 EC50),EC50 (human CB1 receptors; [1]),EC50 (human CB2 receptors; Human CB2 EC50 (uM)),EC50 (human CB1 receptors; [2]),EC50 (human CB1 receptors; [3])
"Cc1nc(C(C)(CC(C)(C)C)NC(=O)c2cc(OCC(F)(F)F)c(C3CC3)cn2)no1 (stereo not drawn) [Example 97, 5-Cyclopropyl-4-(2,2,2-trifluoro-ethoxy)-pyridine-2-carboxylic acid [1,3,3-trimethyl-1-(5-methyl-[1,2,4]oxadiazol-3-yl)-butyl]-amide]",0.0059 µM,> 10 µM,–,–,–
"Cc1nc([C@@](C)(NC(=O)c2cc(OCC(F)(F)F)c(N3CC(F)(F)C3)cn2)C2CC2)no1 (single isomer, unassigned) [Example 88, 5-(3,3-Difluoro-azetidin-1-yl)-4-(2,2,2-trifluoro-ethoxy)-pyridine-2-carboxylic acid [1-cyclopropyl-1-(5-methyl-[1,2,4]oxadiazol-3-yl)-ethyl]-amide]",–,–,0.0105 µM,1.79 µM,–
"Cn1nnc(C(NC(=O)c2cc(OCC(F)(F)F)c(C3CC3)cn2)C(C)(C)C)n1 (single isomer, unassigned) [Example 210, 5-cyclopropyl-N-[2,2-dimethyl-1-(2-methyltetrazol-5-yl)propyl]-4-(2,2,2-trifluoroethoxy)pyridine-2-carboxamide]",–,–,0.0042 µM,–,> 10 µM
"Cn1nnnc1C(NC(=O)c1cc(OCC(F)(F)F)c(C2CC2)cn1)C(C)(C)C (single isomer, unassigned) [Example 205, 5-cyclopropyl-N-[2,2-dimethyl-1-(1-methyltetrazol-5-yl)propyl]-4-(2,2,2-trifluoroethoxy)pyridine-2-carboxamide]",–,–,0.108 µM,> 10 µM,–
"Cc1nc([C@](C)(CC2CC2)NC(=O)c2cc(OCC(F)(F)F)c(C3CC3)cn2)no1 (single isomer, unassigned; enantiomer b) [Example 67, 5-Cyclopropyl-4-(2,2,2-trifluoro-ethoxy)-pyridine-2-carboxylic acid [2-cyclopropyl-1-methyl-1-(5-methyl-[1,2,4]oxadiazol-3-yl)-ethyl]-amide (enantiomer B)]",–,–,0.0037 µM,5.28 µM,–
"Cc1nc(C(C)(CC2CC2)NC(=O)c2cc(OCC(F)(F)F)c(C3(F)COC3)cn2)no1 (single isomer, unassigned) [Example 135, N-[1-cyclopropyl-2-(5-methyl-1,2,4-oxadiazol-3-yl)propan-2-yl]-5-(3-fluorooxetan-3-yl)-4-(2,2,2-trifluoroethoxy)pyridine-2-carboxamide]",–,–,0.144 µM,> 10 µM,–
"Cc1nnc(C(C)(CC2COC2)NC(=O)c2cc(OCC(F)(F)F)c(C3CC3)cn2)o1 (stereo not drawn) [Example 191, 5-cyclopropyl-N-[2-(5-methyl-1,3,4-oxadiazol-2-yl)-1-(oxetan-3-yl)propan-2-yl]-4-(2,2,2-trifluoroethoxy)pyridine-2-carboxamide]",0.707 µM,> 10 µM,–,–,–
"CNC(=O)C(C)(NC(=O)c1cc(O[C@@H](C)C(F)(F)F)c(C2(F)COC2)cn1)c1noc(C)n1 (stereo partly drawn) [Example 183, 5-(3-fluorooxetan-3-yl)-N-[1-(methylamino)-2-(5-methyl-1,2,4-oxadiazol-3-yl)-1-oxopropan-2-yl]-4-[(2S)-1,1,1-trifluoropropan-2-yl]oxypyridine-2-carboxamide]",0.917 µM,> 10 µM,–,–,–
"CC(CC1CC1)(NC(=O)c1cc(OCC(F)(F)F)c(C2CC2)cn1)C(N)=O (stereo not drawn) [Example 186, N-(1-amino-3-cyclopropyl-2-methyl-1-oxopropan-2-yl)-5-cyclopropyl-4-(2,2,2-trifluoroethoxy)pyridine-2-carboxamide]",0.343 µM,> 10 µM,–,–,–
"Cc1nc(C(C)(CN2CC(F)(F)C2)NC(=O)c2cc(OCC(F)(F)F)c(C3CC3)cn2)no1 (stereo not drawn) [Example 128, 5-cyclopropyl-N-[1-(3,3-difluoroazetidin-1-yl)-2-(5-methyl-1,2,4-oxadiazol-3-yl)propan-2-yl]-4-(2,2,2-trifluoroethoxy)pyridine-2-carboxamide]",0.0653 µM,> 10 µM,–,–,–
"CC(CS(C)(=O)=O)(NC(=O)c1cc(OCC(F)(F)F)c(C2CC2)cn1)C(N)=O (stereo not drawn) [Example 134, N-(1-amino-2-methyl-3-methylsulfonyl-1-oxopropan-2-yl)-5-cyclopropyl-4-(2,2,2-trifluoroethoxy)pyridine-2-carboxamide]",0.888 µM,> 10 µM,–,–,–
"CC(C)(CO)CNC(=O)c1cc(OCC2CC2)c(Cl)cn1 [Example 17, 5-Chloro-4-cyclopropylmethoxy-pyridine-2-carboxylic acid (3-hydroxy-2,2-dimethyl-propyl)-amide]",0.0473 µM,> 10 µM,–,–,–
"CC(C)(C)C(NC(=O)c1cc(OCC(F)(F)F)c(C2CC2)cn1)c1nn[nH]n1 (stereo not drawn) [Example 162, 5-cyclopropyl-N-[2,2-dimethyl-1-(1H-tetrazol-5-yl)propyl]-4-(2,2,2-trifluoroethoxy)pyridine-2-carboxamide]",0.0717 µM,> 10 µM,–,–,–
"CNC(=O)C(NC(=O)c1cc(OCC(F)(F)F)c(C2CC2)cn1)C(C)(C)C (single isomer, unassigned) [Example 225, 5-cyclopropyl-N-[3,3-dimethyl-1-(methylamino)-1-oxobutan-2-yl]-4-(2,2,2-trifluoroethoxy)pyridine-2-carboxamide]",–,–,0.0004 µM,–,> 10 µM
"Cc1nc(C(C)(CC2CC2)NC(=O)c2cc(O[C@@H](C)C(F)(F)F)c(C3CC3)cn2)no1 (stereo partly drawn) [Example 100, 5-Cyclopropyl-4-((S)-2,2,2-trifluoro-1-methyl-ethoxy)-pyridine-2-carboxylic acid [2-cyclopropyl-1-methyl-1-(5-methyl-[1,2,4]oxadiazol-3-yl)-ethyl]-amide]",0.0006 µM,> 10 µM,–,–,–
"O=C(NC(CCO)C1CC1)c1cc(OCC2CC2)c(Cl)cn1 (stereo not drawn) [Example 19, 5-Chloro-4-cyclopropylmethoxy-pyridine-2-carboxylic acid (1-cyclopropyl-3-hydroxy-propyl)-amide]",0.0615 µM,> 10 µM,–,–,–
"Cc1nc(C(NC(=O)c2cc(O[C@@H](C)C(F)(F)F)c(C3CC3)cn2)C2(C)COC2)no1 (stereo partly drawn) [Example 254, 5-cyclopropyl-N-[(5-methyl-1,2,4-oxadiazol-3-yl)-(3-methyloxetan-3-yl)methyl]-4-[(2S)-1,1,1-trifluoropropan-2-yl]oxypyridine-2-carboxamide]",0.0065 µM,> 10 µM,–,–,–
"Cc1nc(C(C)(NC(=O)c2cc(OCC3CC3)c(C3CC3)cn2)C2CC2)no1 (stereo not drawn) [Example 44, 5-Cyclopropyl-4-cyclopropylmethoxy-pyridine-2-carboxylic acid [1-cyclopropyl-1-(5-methyl-[1,2,4]oxadiazol-3-yl)-ethyl]-amide]",0.0007 µM,> 10 µM,–,–,–
"Cc1nnc(C(C)(CC2CC2)NC(=O)c2cc(OCC(F)(F)F)c(C3CC3)cn2)o1 (single isomer, unassigned) [Example 185, 5-cyclopropyl-N-[1-cyclopropyl-2-(5-methyl-1,3,4-oxadiazol-2-yl)propan-2-yl]-4-(2,2,2-trifluoroethoxy)pyridine-2-carboxamide]",–,–,0.0302 µM,–,> 10 µM
"Cc1nc(C(C)(CS(C)(=O)=O)NC(=O)c2cc(O[C@@H](C)C(F)(F)F)c(C3CC3)cn2)no1 (stereo partly drawn) [Example 103, 5-Cyclopropyl-4-((S)-2,2,2-trifluoro-1-methyl-ethoxy)-pyridine-2-carboxylic acid [2-methanesulfonyl-1-methyl-1-(5-methyl-[1,2,4]oxadiazol-3-yl)-ethyl]-amide]",0.0034 µM,0.48 µM,–,–,–
"Cc1nc(C(C)(CC2CC2)NC(=O)c2cc(OCC(F)(F)F)c(C3(F)COC3)cn2)no1 (single isomer, unassigned) [Example 136, N-[1-cyclopropyl-2-(5-methyl-1,2,4-oxadiazol-3-yl)propan-2-yl]-5-(3-fluorooxetan-3-yl)-4-(2,2,2-trifluoroethoxy)pyridine-2-carboxamide]",–,–,0.125 µM,–,> 10 µM
"NC(=O)CC(NC(=O)c1cc(OCC(F)(F)F)c(C2CC2)cn1)C1CC1 (stereo not drawn) [Example 193, N-(3-amino-1-cyclopropyl-3-oxopropyl)-5-cyclopropyl-4-(2,2,2-trifluoroethoxy)pyridine-2-carboxamide]",0.114 µM,> 10 µM,–,–,–
"Cc1nc(C(C)(CS(C)(=O)=O)NC(=O)c2cc(OCC(F)F)c(C3CC3)cn2)no1 (single isomer, unassigned) [Example 284, 5-cyclopropyl-4-(2,2-difluoroethoxy)-N-(2-(5-methyl-1,2,4-oxadiazol-3-yl)-1-(methylsulfonyl)propan-2-yl)picolinamide]",–,–,0.0453 µM,–,> 10 µM
"CC(C)(C#N)NC(=O)c1cc(OCC2CC2)c(Cl)cn1 [Example 8, 5-Chloro-4-cyclopropylmethoxy-pyridine-2-carboxylic acid (cyano-dimethyl-methyl)-amide]",0.159 µM,> 10 µM,–,–,–
"Cc1nc(C(C)(CC2CC2)NC(=O)c2cc(O[C@@H](C)C(F)(F)F)c(C3CCC3)cn2)no1 (stereo partly drawn) [Example 121, 5-cyclobutyl-N-[1-cyclopropyl-2-(5-methyl-1,2,4-oxadiazol-3-yl)propan-2-yl]-4-[(2S)-1,1,1-trifluoropropan-2-yl]oxypyridine-2-carboxamide]",0.0006 µM,> 10 µM,–,–,–
"Cc1nc(C(C)(NC(=O)c2cc(OCC(F)(F)F)c(C3(F)COC3)cn2)C2CC2)no1 (single isomer, unassigned) [Example 166, N-[1-cyclopropyl-1-(5-methyl-1,2,4-oxadiazol-3-yl)ethyl]-5-(3-fluorooxetan-3-yl)-4-(2,2,2-trifluoroethoxy)pyridine-2-carboxamide]",–,–,0.31 µM,> 10 µM,–
"NC(=O)CC1(NC(=O)c2cc(OCC(F)(F)F)c(C3(F)CCC3)cn2)CS(=O)(=O)C1 [Example 286, N-[3-(2-amino-2-oxoethyl)-1,1-dioxothietan-3-yl]-5-(1-fluorocyclobutyl)-4-(2,2,2-trifluoroethoxy)pyridine-2-carboxamide]",0.0459 µM,> 10 µM,–,–,–
